# Laboratory results: the kinase profiling compilation of Christmann-Franck et al. (2016)
# Experiments:
# Assay in all cases: KINOMEscan competition binding
# Details in all cases: compound 1.0 µM
# VRK2 (human) = VRK2 (human) (UniProt Q86Y07)
# DAPK3 (human) = DAPK3 (human) (UniProt O43293)
# EPHA8 (human) = EPHA8 (human) (UniProt P29322)
# TLK2 (human) = TLK2 (human) (UniProt Q86UE8)
# RIOK1 (human) = RIOK1 (human) (UniProt Q9BRS2)
# TBK1 (human) = TBK1 (human) (UniProt Q9UHD2)
# SNRK (human) = SNRK (human) (UniProt Q9NRH2)
# FGFR1 (human) = FGFR1 (human) (UniProt P11362)
# WEE1 (human) = WEE1 (human) (UniProt P30291)
# BTK (human) = BTK (human) (UniProt Q06187)
# NEK9 (human) = NEK9 (human) (UniProt Q8TD19)
# PAK1 (human) = PAK1 (human) (UniProt Q13153)
# STK33 (human) = STK33 (human) (UniProt Q9BYT3)
# AKT1 (human) = AKT1 (human) (UniProt P31749)
# TNK1 (human) = TNK1 (human) (UniProt Q13470)
# WEE2 (human) = WEE2 (human) (UniProt P0C1S8)
# EPHB4 (human) = EPHB4 (human) (UniProt P54760)
# CDK4 CCND3 (human) = CDK4 CCND3 (human) (UniProt P11802+P30281)
# PIM2 (human) = PIM2 (human) (UniProt Q9P1W9)
# RPS6KB1 (human) = RPS6KB1 (human) (UniProt P23443)
# STK38 (human) = STK38 (human) (UniProt Q15208)
# LATS2 (human) = LATS2 (human) (UniProt Q9NRM7)
# FLT1 (human) = FLT1 (human) (UniProt P17948)
# CSNK1A1 (human) = CSNK1A1 (human) (UniProt P48729)
# [1] = molecular target: JAK1 JH2 pseudokinase (human) (UniProt P23458)
# MARK4 (human) = MARK4 (human) (UniProt Q96L34)
# MAPKAPK2 (human) = MAPKAPK2 (human) (UniProt P49137)
# MAP2K5 (human) = MAP2K5 (human) (UniProt Q13163)
# TGFBR1 (human) = TGFBR1 (human) (UniProt P36897)
# RPS6KA1 KD1 (human) = RPS6KA1 KD1 (human) (UniProt Q15418)
# MYLK3 (human) = MYLK3 (human) (UniProt Q32MK0)
# MYLK (human) = MYLK (human) (UniProt Q15746)
# PKMYT1 (human) = PKMYT1 (human) (UniProt Q99640)
# PLK1 (human) = PLK1 (human) (UniProt P53350)
# [2] = tested on: EGFR (human), P00533 [L858R]
# [3] = tested on: MET (human), P08581 [M1250T]
# [4] = tested on: FLT3 (human), P36888 [D835H]
# CSNK1G3 (human) = CSNK1G3 (human) (UniProt Q9Y6M4)
# PRKCI (human) = PRKCI (human) (UniProt P41743)
# Sequence of PRKCI (human) (P41743 whole entry, looked up): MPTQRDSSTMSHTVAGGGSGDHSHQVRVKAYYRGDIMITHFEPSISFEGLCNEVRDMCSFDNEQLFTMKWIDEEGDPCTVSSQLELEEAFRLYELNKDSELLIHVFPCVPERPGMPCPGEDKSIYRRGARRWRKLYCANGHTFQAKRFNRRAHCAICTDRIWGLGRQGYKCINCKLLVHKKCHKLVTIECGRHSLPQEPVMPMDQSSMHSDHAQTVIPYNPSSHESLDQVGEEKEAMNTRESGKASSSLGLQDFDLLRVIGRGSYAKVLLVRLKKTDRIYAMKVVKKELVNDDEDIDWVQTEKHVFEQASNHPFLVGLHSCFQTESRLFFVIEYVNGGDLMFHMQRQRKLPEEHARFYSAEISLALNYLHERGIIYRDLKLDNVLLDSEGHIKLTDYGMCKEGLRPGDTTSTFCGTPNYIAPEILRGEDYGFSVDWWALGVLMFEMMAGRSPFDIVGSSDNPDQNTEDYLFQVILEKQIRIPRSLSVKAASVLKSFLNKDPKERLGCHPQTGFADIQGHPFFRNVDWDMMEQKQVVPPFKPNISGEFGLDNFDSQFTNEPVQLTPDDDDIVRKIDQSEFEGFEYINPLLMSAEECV
# Sequence of TBK1 (human) (Q9UHD2 whole entry, looked up): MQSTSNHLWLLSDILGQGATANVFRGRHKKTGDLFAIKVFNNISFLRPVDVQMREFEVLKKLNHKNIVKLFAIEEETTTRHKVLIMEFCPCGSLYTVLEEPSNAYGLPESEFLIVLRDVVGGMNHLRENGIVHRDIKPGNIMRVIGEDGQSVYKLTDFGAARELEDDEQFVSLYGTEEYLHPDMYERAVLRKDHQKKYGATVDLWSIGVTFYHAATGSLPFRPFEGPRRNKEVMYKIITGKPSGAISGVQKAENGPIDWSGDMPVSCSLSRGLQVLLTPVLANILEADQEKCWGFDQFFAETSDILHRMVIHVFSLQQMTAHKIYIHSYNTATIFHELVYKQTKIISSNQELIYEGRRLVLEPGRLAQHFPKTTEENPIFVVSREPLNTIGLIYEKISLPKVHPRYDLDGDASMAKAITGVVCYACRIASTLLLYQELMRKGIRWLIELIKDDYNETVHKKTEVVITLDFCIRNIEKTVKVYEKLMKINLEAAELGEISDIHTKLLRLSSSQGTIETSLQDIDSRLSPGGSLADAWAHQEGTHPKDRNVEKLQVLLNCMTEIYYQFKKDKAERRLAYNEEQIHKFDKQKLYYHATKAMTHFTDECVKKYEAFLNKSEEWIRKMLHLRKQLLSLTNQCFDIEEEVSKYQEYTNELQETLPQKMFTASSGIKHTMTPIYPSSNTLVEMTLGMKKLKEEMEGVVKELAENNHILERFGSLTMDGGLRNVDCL
# Sequence of CSNK1A1 (human) (P48729 whole entry, looked up): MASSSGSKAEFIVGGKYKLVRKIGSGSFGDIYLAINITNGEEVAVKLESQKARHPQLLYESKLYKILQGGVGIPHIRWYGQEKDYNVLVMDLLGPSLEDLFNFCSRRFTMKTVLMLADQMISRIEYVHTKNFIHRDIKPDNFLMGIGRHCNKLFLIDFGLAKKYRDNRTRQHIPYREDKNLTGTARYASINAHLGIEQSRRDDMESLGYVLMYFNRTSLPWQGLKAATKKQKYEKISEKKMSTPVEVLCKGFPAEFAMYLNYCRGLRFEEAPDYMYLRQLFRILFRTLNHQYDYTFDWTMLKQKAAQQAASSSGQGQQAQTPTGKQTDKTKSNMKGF
# Sequence of WEE1 (human) (P30291 whole entry, looked up): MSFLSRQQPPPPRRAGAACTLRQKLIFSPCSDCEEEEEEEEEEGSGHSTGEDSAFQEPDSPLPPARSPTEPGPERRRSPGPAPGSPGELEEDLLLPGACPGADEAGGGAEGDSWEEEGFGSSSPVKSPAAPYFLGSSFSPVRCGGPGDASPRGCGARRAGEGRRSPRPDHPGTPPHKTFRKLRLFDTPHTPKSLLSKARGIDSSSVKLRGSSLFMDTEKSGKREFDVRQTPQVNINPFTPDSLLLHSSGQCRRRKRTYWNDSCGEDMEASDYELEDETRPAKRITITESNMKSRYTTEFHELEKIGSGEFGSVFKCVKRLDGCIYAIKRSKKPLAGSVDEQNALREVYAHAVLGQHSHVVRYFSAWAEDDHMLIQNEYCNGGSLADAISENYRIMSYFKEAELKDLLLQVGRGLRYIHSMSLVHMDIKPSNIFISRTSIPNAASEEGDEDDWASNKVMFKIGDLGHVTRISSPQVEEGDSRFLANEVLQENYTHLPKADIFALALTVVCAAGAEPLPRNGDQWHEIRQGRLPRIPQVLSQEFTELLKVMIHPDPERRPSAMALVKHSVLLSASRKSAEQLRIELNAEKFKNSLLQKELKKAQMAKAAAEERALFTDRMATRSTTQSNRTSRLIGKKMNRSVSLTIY
# Sequence of TGFBR1 (human) (P36897 whole entry, looked up): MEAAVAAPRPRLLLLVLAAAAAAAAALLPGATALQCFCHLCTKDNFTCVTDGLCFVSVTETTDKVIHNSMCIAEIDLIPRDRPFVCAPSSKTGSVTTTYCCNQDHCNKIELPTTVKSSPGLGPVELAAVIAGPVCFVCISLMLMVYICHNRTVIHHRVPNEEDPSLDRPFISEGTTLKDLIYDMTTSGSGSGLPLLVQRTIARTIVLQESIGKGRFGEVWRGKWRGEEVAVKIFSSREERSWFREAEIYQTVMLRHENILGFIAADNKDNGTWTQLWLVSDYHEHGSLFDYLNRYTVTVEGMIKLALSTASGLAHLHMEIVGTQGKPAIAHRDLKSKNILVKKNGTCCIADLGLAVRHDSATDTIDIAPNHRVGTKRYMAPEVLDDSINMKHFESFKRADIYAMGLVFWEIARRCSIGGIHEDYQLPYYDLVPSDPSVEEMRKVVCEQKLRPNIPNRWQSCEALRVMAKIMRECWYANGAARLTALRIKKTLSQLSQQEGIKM
# Sequence of CDK4 CCND3 (human) (P11802 whole entry, looked up): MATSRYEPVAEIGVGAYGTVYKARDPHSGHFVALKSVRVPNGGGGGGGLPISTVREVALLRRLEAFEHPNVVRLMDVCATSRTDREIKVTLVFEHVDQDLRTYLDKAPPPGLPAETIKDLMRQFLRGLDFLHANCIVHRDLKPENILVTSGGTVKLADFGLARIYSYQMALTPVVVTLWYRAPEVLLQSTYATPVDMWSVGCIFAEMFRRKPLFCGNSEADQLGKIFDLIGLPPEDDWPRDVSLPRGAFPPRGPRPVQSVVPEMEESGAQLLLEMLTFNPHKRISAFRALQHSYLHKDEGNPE
# Sequence of CDK4 CCND3 (human) (P30281 whole entry, looked up): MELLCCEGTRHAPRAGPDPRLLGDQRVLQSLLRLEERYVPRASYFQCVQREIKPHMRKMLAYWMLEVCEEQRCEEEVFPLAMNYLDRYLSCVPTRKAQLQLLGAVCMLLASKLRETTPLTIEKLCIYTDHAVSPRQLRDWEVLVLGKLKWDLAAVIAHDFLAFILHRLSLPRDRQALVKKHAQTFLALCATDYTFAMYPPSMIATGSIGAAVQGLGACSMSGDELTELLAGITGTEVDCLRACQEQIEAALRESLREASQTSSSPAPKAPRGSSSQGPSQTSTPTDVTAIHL
# Sequence of STK38 (human) (Q15208 whole entry, looked up): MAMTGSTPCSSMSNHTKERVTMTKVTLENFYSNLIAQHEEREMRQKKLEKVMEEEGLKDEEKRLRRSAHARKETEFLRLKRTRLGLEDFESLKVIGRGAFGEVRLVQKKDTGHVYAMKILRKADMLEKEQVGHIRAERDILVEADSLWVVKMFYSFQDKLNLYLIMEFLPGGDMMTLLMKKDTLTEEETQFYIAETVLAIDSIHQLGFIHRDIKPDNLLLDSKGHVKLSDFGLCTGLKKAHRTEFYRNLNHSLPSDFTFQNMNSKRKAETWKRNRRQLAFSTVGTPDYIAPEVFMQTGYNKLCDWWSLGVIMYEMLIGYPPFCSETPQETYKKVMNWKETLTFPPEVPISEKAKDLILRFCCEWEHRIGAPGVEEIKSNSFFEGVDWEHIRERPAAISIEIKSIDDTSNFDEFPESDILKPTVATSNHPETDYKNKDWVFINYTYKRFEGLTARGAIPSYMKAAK
# Sequence of PLK1 (human) (P53350 whole entry, looked up): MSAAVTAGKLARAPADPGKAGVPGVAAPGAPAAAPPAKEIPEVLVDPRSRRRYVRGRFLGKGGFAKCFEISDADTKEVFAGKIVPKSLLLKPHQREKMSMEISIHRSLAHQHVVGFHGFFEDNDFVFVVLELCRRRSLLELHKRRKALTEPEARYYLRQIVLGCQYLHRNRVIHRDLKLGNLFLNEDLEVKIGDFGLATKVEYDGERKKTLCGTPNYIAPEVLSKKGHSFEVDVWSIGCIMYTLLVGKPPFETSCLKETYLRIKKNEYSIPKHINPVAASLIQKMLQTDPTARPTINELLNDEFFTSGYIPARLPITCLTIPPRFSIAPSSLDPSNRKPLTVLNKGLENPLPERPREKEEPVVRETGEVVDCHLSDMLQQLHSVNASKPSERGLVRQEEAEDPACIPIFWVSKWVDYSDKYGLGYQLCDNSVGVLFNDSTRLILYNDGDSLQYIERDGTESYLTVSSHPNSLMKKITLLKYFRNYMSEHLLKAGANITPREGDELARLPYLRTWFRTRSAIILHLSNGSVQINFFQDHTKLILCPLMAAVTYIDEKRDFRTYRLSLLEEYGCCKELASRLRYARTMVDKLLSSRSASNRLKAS
# Sequence of AKT1 (human) (P31749 whole entry, looked up): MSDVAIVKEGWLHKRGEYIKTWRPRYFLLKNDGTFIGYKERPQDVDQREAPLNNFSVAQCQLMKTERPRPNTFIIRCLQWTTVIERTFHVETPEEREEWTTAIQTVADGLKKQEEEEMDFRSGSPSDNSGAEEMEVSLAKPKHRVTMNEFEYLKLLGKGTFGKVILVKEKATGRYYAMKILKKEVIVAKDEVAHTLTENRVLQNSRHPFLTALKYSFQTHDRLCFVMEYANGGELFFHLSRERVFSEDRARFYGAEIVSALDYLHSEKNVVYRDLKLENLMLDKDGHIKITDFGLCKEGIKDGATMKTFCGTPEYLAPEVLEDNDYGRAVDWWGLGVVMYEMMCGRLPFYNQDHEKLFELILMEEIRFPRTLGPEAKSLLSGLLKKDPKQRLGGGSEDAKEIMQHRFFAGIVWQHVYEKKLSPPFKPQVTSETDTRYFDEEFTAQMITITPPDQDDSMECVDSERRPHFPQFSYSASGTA
smiles,measurement,setting,value
CNc1nc(Nc2ccc(C(=O)N3CCOCC3)cc2OC)ncc1Cl,"kinase still bound, per cent of control",VRK2 (human),95%
same,"kinase still bound, per cent of control",DAPK3 (human),63%
same,"kinase still bound, per cent of control",EPHA8 (human),100%
same,"kinase still bound, per cent of control",TLK2 (human),100%
same,"kinase still bound, per cent of control",RIOK1 (human),95%
same,"kinase still bound, per cent of control",TBK1 (human),100%
same,"kinase still bound, per cent of control",SNRK (human),100%
same,"kinase still bound, per cent of control",FGFR1 (human),55%
same,"kinase still bound, per cent of control",WEE1 (human),78%
same,"kinase still bound, per cent of control",BTK (human),100%
same,"kinase still bound, per cent of control",NEK9 (human),93%
same,"kinase still bound, per cent of control",PAK1 (human),100%
same,"kinase still bound, per cent of control",STK33 (human),38%
same,"kinase still bound, per cent of control",AKT1 (human),99%
same,"kinase still bound, per cent of control",TNK1 (human),66%
same,"kinase still bound, per cent of control",WEE2 (human),95%
same,"kinase still bound, per cent of control",EPHB4 (human),100%
same,residual activity,CDK4 CCND3 (human),36%
same,"kinase still bound, per cent of control",PIM2 (human),100%
same,"kinase still bound, per cent of control",RPS6KB1 (human),85%
same,"kinase still bound, per cent of control",STK38 (human),100%
same,"kinase still bound, per cent of control",LATS2 (human),100%
same,"kinase still bound, per cent of control",FLT1 (human),100%
same,"kinase still bound, per cent of control",CSNK1A1 (human),100%
same,"kinase still bound, per cent of control",[1],90%
same,"kinase still bound, per cent of control",MARK4 (human),45%
same,"kinase still bound, per cent of control",MAPKAPK2 (human),95%
same,"kinase still bound, per cent of control",MAP2K5 (human),100%
same,"kinase still bound, per cent of control",TGFBR1 (human),100%
same,"kinase still bound, per cent of control",RPS6KA1 KD1 (human),100%
same,"kinase still bound, per cent of control",MYLK3 (human),100%
same,residual activity,MYLK (human),75%
same,"kinase still bound, per cent of control",PKMYT1 (human),97%
same,"kinase still bound, per cent of control",PLK1 (human),100%
same,"kinase still bound, per cent of control",[2],100%
same,"kinase still bound, per cent of control",[3],100%
same,"kinase still bound, per cent of control",[4],78%
same,"kinase still bound, per cent of control",CSNK1G3 (human),100%
same,"kinase still bound, per cent of control",PRKCI (human),100%
